The RepoRT retention time repository (doi:10.1007/s11306-011-0298-z)

experiment: RP, Waters ACQUITY UPLC HSS T3, 100 × 2.1 mm, 1.8 µm, 30 °C, 0.3 mL/min, estimated dead time 0.73 min; A: water + 0.1% formic acid, pH 3; B: methanol + 0.1% formic acid, pH 3; gradient (min/%B) 0/0 6/0 56/100 60/100; conditions: stereoisomer not certain

Structure (SMILES)	LC retention time [min]
COc1cc(-c2oc3cc(O)cc(O)c3c(=O)c2OC2OC(CO)C(O)C(O)C2O)cc(OC)c1O (configuration not stated) [syringetin-3-galactoside]	31.6
COc1cc(-c2oc3cc(O)cc(O)c3c(=O)c2O)cc(OC)c1O [syringetin]	37.4
COc1cc(C(=O)O)cc(OC)c1O [syringic acid]	21.9
CC(CCC(=O)NCCS(=O)(=O)O)C1CCC2C3C(O)CC4CC(O)CCC4(C)C3CC(O)C12C (configuration not stated) [taurocholic acid]	42.3
O=C1c2c(O)cc(O)cc2OC(c2ccc(O)c(O)c2)C1O (configuration not stated) [taxifolin]	25.3
CC(C)(C)c1cc(O)ccc1O [tert-butylhydroquinone]	30.5
Cn1cnc2c1c(=O)[nH]c(=O)n2C [theobromine]	15.3
Cn1c(=O)c2[nH]cnc2n(C)c1=O [theophylline]	17.8
Cc1ncc(C[n+]2csc(CCO)c2C)c(N)n1 [thiamine]	1.6
O=C(O)C(O)C(O)CO (configuration not stated) [threonic acid]	1.45
O=CC(O)C(O)CO (configuration not stated) [threose]	1.47
O=C(C=Cc1ccc(O)cc1)OC(C(=O)O)C(O)C(=O)O (stereo not drawn) [trans coutaric acid]	18
CC1(O)CCC(C(C)(C)O)CC1 (stereo not drawn) [trans-terpin]	27.9
C[n+]1cccc(C(=O)[O-])c1 [trigonelline]	1.67
OCCc1c[nH]c2ccccc12 [trypthophol]	26.2
NCCc1ccc(O)cc1 [tyramine]	6.2

Structure (SMILES)	LC retention time [min]
OCCc1ccc(O)cc1 [tyrosol]	17.5
O=c1ccc2ccc(O)cc2o1 [umbelliferone]	23.9
O=c1cc[nH]c(=O)[nH]1 [uracil]	2.98
NC(N)=O [urea]	1.3
CCOC(N)=O [urethane]	7.1
O=c1[nH]c(=O)c2[nH]c(=O)[nH]c2[nH]1 [uric acid]	1.62
O=c1ccn(C2OC(CO)C(O)C2O)c(=O)[nH]1 (configuration not stated) [uridine]	7
CC1CCC2(C(=O)O)CCC3(C)C(=CCC4C5(C)CCC(O)C(C)(C)C5CCC43C)C2C1C (configuration not stated) [ursolic acid]	53.6
COc1cc(C(=O)O)ccc1O [vanillic acid]	20.3
COc1cc(C=O)ccc1O [vanillin]	21.5
Oc1ccc(C2Oc3cc(O)c4c(c3C2c2cc(O)cc(O)c2)C2c3c(O)cc5c(c3C(C4c3ccc(O)cc3)C2c2ccc(O)cc2)C(c2cc(O)cc(O)c2)C(c2ccc(O)cc2)O5)cc1 (stereo not drawn) [vaticanol C like isomer]	29
CC(=CCC1=C(C)C(=O)c2ccccc2C1=O)CCCC(C)CCCC(C)CCCC(C)C (configuration not stated) [vitamin K1]	57.7
COc1cc(-c2oc3cc(=O)cc4oc(C(=O)O)cc(c2OC2OC(CO)C(O)C(O)C2O)c43)cc(OC)c1O (configuration not stated) [vitisin A]	28.3
COc1cc(-c2oc3cc(=O)cc4occc(c2OC2OC(CO)C(O)C(O)C2O)c43)cc(OC)c1O (configuration not stated) [vitisin B]	27
O=c1[nH]c(=O)c2[nH]cnc2[nH]1 [xanthine]	6.01
OC1COC(O)C(O)C1O (configuration not stated) [xylose]	1.4
